Data reported in patent US6472369B1, “Anticancer compounds and methods” (The Regents of the University of Michigan, priority 1996, dated 2002).
Where no end group is shown, it is not given here. [ ]: non-standard residue; d: D form. hCys = N[C@@H](CCS)C(=O)O

How the values were obtained:
[1] = system: rat metastatic prostate carcinoma MatLyLu (MLL) cells; assay: SU-ECM invasion assay, rat MatLyLu prostate carcinoma cells; format: cell-based; conditions: 10% FCS, FIG. 8
Method: (§1) Adult Strongylocentrotus purpuratus sea urchins were obtained from Pacific BioMarine, and their embryos were cultured to the early pluteus stage in artificial sea water at 15° C. SU-ECM were prepared from them by treatment with nonionic detergent and strerilized by dilution in the appropriate media.
(§2) Cells were harvested by rinsing in Hanks' balanced salt solution, followed by brief treatment with 0.25% trypsin, 0.02% EDTA, and pelleting and resuspension in the appropriate medium with or without 5% FCS at a density of about 50,000 cells per ml. When appropriate, purified bovine plasma fibronectin (Sigma), purified 120 kDa chymotryptic fragment (Gibco BRL), PHSRN (SEQ ID NO:1) or PHSCN (SEQ ID NO:86) peptides (synthesized at the Biomedical Research Core Facilities of the University of Michigan), or GRGDSP (SEQ ID NO:83) or GRGESP (SEQ ID NO:84) peptides (Gibco BRL) were added to the resuspended cells prior to placement of the cells on SU-ECM. In each well of a plate used for an invasion assay, SU-ECM were placed in 0.5 ml of the appropriate medium, and 0.5 ml of the resuspended cells dropped on their exterior surfaces. Invasion assays were incubated 1 to 16 hours prior to assay. If some circumstances, invasion assays were fixed in phosphate-buffered saline (PBS) with 2% formaldehyde for 5 minutes at room temperature, then rinsed into PBS.
(§3) Invasion assays were coded and scored blindly by microscopic examination under phase contrast at 200- and 400-fold magnification. Each cell contacting an SU-ECM was scored for its position relative to the exterior or interior surfaces. A cell was judged to have invaded if it was located on an interior surface below the focal plane passing through the upper surface of the SU-ECM, but above the focal plane passing through its lower surface. The minimum viability of the cells in each assay was always ascertained at the time of assay by determining the fraction of spread, adherent cells on the bottom of each well scored.
(§4) An invasion frequency is defined as the fraction of cells in contact with basement membranes which were located in their interiors at the time of assay. Thus, an invasion frequency of 1 denotes invasion by 100% of the cells in contact with basement membranes. Invasion frequencies were determined multiple times for each cell type assayed. For each type of cell assayed the mean and standard deviation of the invasion frequencies were calculated.
The result of adding a varying concentration of the PHSCN (SEQ ID NO:86) peptide to PHSRN-induced (SEQ ID NO:1) MLL cells in serum free media is shown in FIG. 7B, where 100 ng per ml of PHSRN (SEQ ID NO:1) was used to induce invasion.
The procedure described in Example 10, was employed using SU-ECM substrates in 10% FCS and PHS(hC)N (SEQ ID NO:85) instead of PHSCN (SEQ ID NO:86). The result of adding varying concentrations of the PHS(hC)N (SEQ ID NO:85) peptide to serum-induced MLL cells indicates this peptide also has an inhibitory affect on cell invasion (see FIG. 8).

[2] = system: DU-145 metastatic prostate cancer cells; assay: Invasion of fibronectin-depleted Matrigel by DU-145 cells; format: cell-based, human; conditions: 0.5 μl/ml peptide added to gelatin-panned Matrigel, FIG. 3
Method: This example describes a purification approach for removal of plasma fibronectin (and/or cellular fibronectin) from a substrate (Matrigel). In this example, removal was attempted by successive panning on gelatin. Eight wells of 24-well plate were coated with a 2% gelatin solution (the gelatin was obtained from Becton Dickinson Labware, Catalog #11868). The wells were filled with the gelatin solution which had been heated to 50 C. and incubated for 3 minutes. Then the solution was removed and the wells were allowed to air dry. Following drying, the wells were thoroughly rinsed with ddH2O followed by two rinses with PBS. The plates were again allowed to dry; thereafter they were stored at −20 C. until use. Matrigel was thawed on ice and then added to one of the wells of a gelatin-coated plate (between 800 μl and 1 ml of Matrigel was added to a well of a 24-well plate). The plate was placed in a bucket of ice in a 4 C. room on an orbital shaker where the Matrigel was incubated in the well for two hours (although overnight incubation can be used). Following the incubation, the Matrigel was moved from the first well to a second well and then incubated for two hours under the same conditions. This process was repeated until the Matrigel had been incubated on all eight wells of the gelatin-coated plate.
Following the depletion of the Matrigel, it was collected in Eppendorf tubes. […]

[3] = system: metastatic DU-145 prostate cancer cells; assay: SU-ECM invasion assay, DU-145 prostate cancer cells; format: cell-based, human; conditions: DU-145 cells
[4] = system: normal, neonatal fibroblasts; assay: Invasion of gelatin- and antibody-depleted Matrigel by fibroblasts; format: cell-based; conditions: Matrigel depleted by gelatin and antibody panning, FIG. 4
Method: Anti-fibronectin antibody-coated wells: Wells of a 24-well plate were coated with an anti-fibronectin antibody. A mouse monoclonal antibody to human fibronectin was obtained from Oncogene Science (Catalog #CP13). Each well was incubated with 1 ml of antibody at a concentration of 30 μl/ml for 2 hours at room temperature. Each well was then incubated with a solution of 3% BSA in PBS for 2 hours at room temperature. Following the two incubation periods, the wells were thoroughly washed with PBS and stored at −20 C. until use.
Depleting Matrigel of Fibronectin: Matrigel was panned over eight gelatin-coated wells (as described above in Example 2) to remove most of the fibronectin and its fragments. Thereafter, the Matrigel was placed in the antibody-coated wells to remove any remaining fragments of fibronectin which contain the cell-binding domain but not the gelatin-binding domain. The Matrigel was incubated in an ice bucket on an orbital shaker at 4 C. for 2 hours. Once the Matrigel was depleted, it was collected in Eppendorf tubes. The firbonectin-depleted Matrigel was plated on a 48-well plate (150 μl/well), sterilized under a UV light for 10 minutes and incubated at 37 C. overnight. The Matrigel formed a gel and the following day, cells were added to the wells. […]

[5] = system: keratinocytes; assay: Keratinocyte invasion of serum-free SU-ECM; format: cell-based
Excerpt: Since, during wound reepithelialization, keratinocytes migrate through the connective tissue of the provisional matrix to “wall off” portions of the wound, as well as through the adjacent stroma, it is not surprising that they are also stimulated to migrate through the matrix of SU-ECM invasion substrates by the PHSRN (SEQ ID NO:1) sequence. […] Recruitment of fibroblasts or monocytes/macrophages whose paracrine, regulatory effects on a variety of neighboring cells are required for the early stages of wound healing is contemplated as a highly efficient and effective way to stimulate the cascade of regulatory interactions involved in wound healing because these cells will secrete the active factors or cytokines in the correct temporal sequences and spatial locations to ensure their optimal activities. Because it efficiently induces keratinocyte migration through the extracellular matrix in vitro, the PHSRN (SEQ ID NO:1) peptide is also likely to stimulate wound reepithelialization directly. The use of the PHSRN (SEQ ID NO:1) peptide or structurally related molecules according to the present invention is to stimulate the entry of cells such as fibroblasts and monocyte/macrophages into the provisional matrix of a wound, so that the entering cells themselves secrete the factors and cytokines active in inducing or potentiating wound healing. […]

[6] = system: metastatic SUM-52 PE breast cancer cells; assay: SU-ECM invasion assay, SUM-52 PE breast cancer cells; format: cell-based, human; conditions: SUM-52 cells
Method: Human breast carcinoma cell lines SUM 52 PE and SUM 44 PE were originally cultured from the pleural effusions of patients with metastatic breast cancer; and SUM 102 was cultured from a primary, microinvasive breast carcinoma (Ethier, S. P., Mahack, M. L., Gullick, W. J., Frank, T. S., and Weber, B. L. Differential isolation of normal luminal mammary epithelial cells and breast cancer cells from primary and metastatic sites using selective media. Cancer Res. 53: 627-635).
as §1, §2, §3, §4
The method of Example 4 is employed, with the addition of varying concentrations of the PHSCN (SEQ ID NO:86) peptide.
Thus, the procedure in Example 4 provides a method for determining the inhibitory potential of the PHSCN (SEQ ID NO:86) peptide by comparing the number of cell invasions in the presence of the PHSCN (SEQ ID NO:86) peptide, with the number of cell invasions in the absence of the PHSCN (SEQ ID NO:86) peptide.

[7] = system: neonatal, human fibroblasts; assay: Fibroblast invasion of SU-ECM basement membranes; format: cell-based; conditions: for stimulation of fibroblast invasion of basement membranes in vitro: in the presence of serum or under serum-free conditions
Method: as §1
as §2, with “If some circumstances, invasion assays were fixed in phosphate-buffered saline (PBS) with 2% formaldehyde for 5 minutes at room temperature, then rinsed into PBS.” left out
as §3, with “A cell was judged to have invaded if it was located on an interior surface below the focal plane passing through the upper surface of the SU-ECM, but above the focal plane passing through its lower surface.” left out
as §4, with “Thus, an invasion frequency of 1 denotes invasion by 100% of the cells in contact with basement membranes.” left out, “calculated. […]” for “calculated.”

Substance | inhibition of serum-induced invasion of SU-ECM ([1]; higher concentrations) | inhibition of serum-induced invasion of SU-ECM ([1]; lower concentrations) | restoration of DU-145 invasiveness on depleted Matrigel [2] | induction of invasion of the SU-ECM substrate [3] | induction of fibroblast invasiveness on depleted Matrigel [4] | stimulation of keratinocyte invasion [5] | induction of invasion of the SU-ECM substrate [6] | stimulation of fibroblast invasion of basement membranes in vitro [7] | induction of fibroblast invasion of SU-ECM ([7]; serum-free SU-ECM)
PHS(hC)N: homo-cysteine containing peptide (PHS[hCys]N) | completely inhibits invasion | substantially inhibits invasion |  |  |  |  |  |  | 
Pro-His-Ser-Arg-Asn (PHSRN) |  |  | sufficient to restore the full DU-145 invasiveness | induced to invade | invasiveness of the fibroblasts could be induced | stimulate keratinocyte invasion | induced to invade | sufficient to stimulate fibroblast invasion | induced
intact plasma fibronectin: purified bovine plasma fibronectin (Sigma); a significant component of serum |  |  |  | induced to invade |  |  | induced to invade | fails to stimulate fibroblast invasion | 
